Reference: the NIST ThermoML archive (doi:10.1016/j.fluid.2007.06.007)

Experiment: excess molar enthalpy (molar enthalpy of mixing); xn = mol fraction of the nth substance listed
Details: 101 kPa, Liquid, Calvet calorimetry

CCCCn1cc[n+](C)c1.F[P-](F)(F)(F)(F)F [1-butyl-3-methylimidazolium hexafluorophosphate] + CCCCO
Details	excess molar enthalpy [kcal/mol]
288.15 K, x2 = 0.000787	0.00199
288.15 K, x2 = 0.001572	0.00391
288.15 K, x2 = 0.002356	0.00586
288.15 K, x2 = 0.003139	0.00774
288.15 K, x2 = 0.003921	0.00965
288.15 K, x2 = 0.004701	0.0115
288.15 K, x2 = 0.00548	0.0134
288.15 K, x2 = 0.006258	0.0153
298.15 K, x2 = 0.000761	0.00205
298.15 K, x2 = 0.00152	0.00402
298.15 K, x2 = 0.002279	0.00604
298.15 K, x2 = 0.003036	0.00798
298.15 K, x2 = 0.003792	0.00989
298.15 K, x2 = 0.004547	0.0117
298.15 K, x2 = 0.005301	0.0136
298.15 K, x2 = 0.006053	0.0154
308.15 K, x2 = 0.000768	0.00202
308.15 K, x2 = 0.001541	0.00387
308.15 K, x2 = 0.002312	0.00562
308.15 K, x2 = 0.003086	0.00739
308.15 K, x2 = 0.003861	0.0092
308.15 K, x2 = 0.004632	0.011
308.15 K, x2 = 0.005405	0.0129
308.15 K, x2 = 0.006177	0.0147
318.15 K, x2 = 0.000821	0.00228
318.15 K, x2 = 0.001647	0.00451
318.15 K, x2 = 0.00247	0.00669
318.15 K, x2 = 0.003297	0.00863
318.15 K, x2 = 0.004125	0.0107
318.15 K, x2 = 0.004949	0.0128
318.15 K, x2 = 0.005774	0.0148
318.15 K, x2 = 0.006599	0.0167
328.15 K, x2 = 0.000874	0.00273
328.15 K, x2 = 0.001747	0.00529
328.15 K, x2 = 0.002618	0.00766
328.15 K, x2 = 0.003488	0.0101
328.15 K, x2 = 0.004357	0.0126
328.15 K, x2 = 0.005223	0.015
328.15 K, x2 = 0.006089	0.0174
328.15 K, x2 = 0.006952	0.0198

CCCCn1cc[n+](C)c1.F[P-](F)(F)(F)(F)F [1-butyl-3-methylimidazolium hexafluorophosphate] + CC(C)O
Details	excess molar enthalpy [kcal/mol]
288.15 K, x2 = 0.000943	0.00213
288.15 K, x2 = 0.001871	0.00426
288.15 K, x2 = 0.002806	0.00637
288.15 K, x2 = 0.003745	0.00844
288.15 K, x2 = 0.004685	0.0106
288.15 K, x2 = 0.00562	0.0126
288.15 K, x2 = 0.006556	0.0146
288.15 K, x2 = 0.007492	0.0167
298.15 K, x2 = 0.000909	0.00209
298.15 K, x2 = 0.001826	0.00417
298.15 K, x2 = 0.002738	0.0062
298.15 K, x2 = 0.003654	0.00821
298.15 K, x2 = 0.004571	0.0102
298.15 K, x2 = 0.005484	0.0123
298.15 K, x2 = 0.006398	0.0143
298.15 K, x2 = 0.007311	0.0163
308.15 K, x2 = 0.000919	0.00219
308.15 K, x2 = 0.001837	0.00421
308.15 K, x2 = 0.002753	0.00609
308.15 K, x2 = 0.003667	0.00793
308.15 K, x2 = 0.004579	0.00975
308.15 K, x2 = 0.00549	0.0115
308.15 K, x2 = 0.006399	0.0132
308.15 K, x2 = 0.007307	0.0149
318.15 K, x2 = 0.000994	0.00241
318.15 K, x2 = 0.00201	0.00473
318.15 K, x2 = 0.003012	0.00688
318.15 K, x2 = 0.004011	0.00907
318.15 K, x2 = 0.005009	0.0111
318.15 K, x2 = 0.006005	0.0133
318.15 K, x2 = 0.006999	0.0154
318.15 K, x2 = 0.007991	0.0172

CCCCn1cc[n+](C)c1.F[P-](F)(F)(F)(F)F [1-butyl-3-methylimidazolium hexafluorophosphate] + CCO
Details	excess molar enthalpy [kcal/mol]
288.15 K, x2 = 0.001144	0.00208
288.15 K, x2 = 0.002285	0.00415
288.15 K, x2 = 0.003423	0.00629
288.15 K, x2 = 0.004559	0.00822
288.15 K, x2 = 0.005692	0.0104
288.15 K, x2 = 0.006823	0.0126
288.15 K, x2 = 0.007951	0.0147
288.15 K, x2 = 0.009076	0.0168
298.15 K, x2 = 0.001112	0.00206
298.15 K, x2 = 0.002231	0.00395
298.15 K, x2 = 0.003346	0.00578
298.15 K, x2 = 0.004465	0.00775
298.15 K, x2 = 0.005584	0.00937
298.15 K, x2 = 0.006698	0.0112
298.15 K, x2 = 0.007812	0.0132
298.15 K, x2 = 0.008925	0.015
308.15 K, x2 = 0.00114	0.00243
308.15 K, x2 = 0.002261	0.00429
308.15 K, x2 = 0.00339	0.00632
308.15 K, x2 = 0.004524	0.00838
308.15 K, x2 = 0.005658	0.0101
308.15 K, x2 = 0.006787	0.0119
308.15 K, x2 = 0.007915	0.0139
308.15 K, x2 = 0.009044	0.0158
318.15 K, x2 = 0.001144	0.00253
318.15 K, x2 = 0.002294	0.00499
318.15 K, x2 = 0.00344	0.00687
318.15 K, x2 = 0.004591	0.00876
318.15 K, x2 = 0.005741	0.011
318.15 K, x2 = 0.006886	0.0133
318.15 K, x2 = 0.008031	0.0153
318.15 K, x2 = 0.009176	0.0174

CCO [ethanol] + O
298.15 K
Details	excess molar enthalpy [kcal/mol]
x1 = 0.000102	-0.000249
x1 = 0.000206	-0.000497
x1 = 0.000308	-0.000746
x1 = 0.000412	-0.000992
x1 = 0.000516	-0.00124
x1 = 0.000619	-0.00148
x1 = 0.000723	-0.00173
x1 = 0.000827	-0.00197
x1 = 0.000931	-0.00222
x1 = 0.001034	-0.00246
x1 = 0.001138	-0.00271
x1 = 0.001241	-0.00295
x1 = 0.001345	-0.00319
x1 = 0.001448	-0.00343
x1 = 0.001551	-0.00367
x2 = 0.001021	-0.000507
x2 = 0.00205	-0.00101
x2 = 0.003074	-0.00151
x2 = 0.004102	-0.002
x2 = 0.00513	-0.00248
x2 = 0.006155	-0.00296
x2 = 0.007179	-0.00343
x2 = 0.008203	-0.0039
x2 = 0.009225	-0.00437
x2 = 0.01024	-0.00484
x2 = 0.01125	-0.00529
x2 = 0.01226	-0.00575
x2 = 0.01328	-0.00619
x2 = 0.01428	-0.00664
x2 = 0.01529	-0.00708

CCCCCCC [heptane] + CCO
298.15 K
Details	excess molar enthalpy [kcal/mol]
x1 = 0.00013	0.0001
x1 = 0.000261	0.000201
x1 = 0.000392	0.000304
x1 = 0.000524	0.000402
x1 = 0.000655	0.00049
x1 = 0.000787	0.000588
x1 = 0.000919	0.000679
x1 = 0.001051	0.000767
x1 = 0.001183	0.000865
x1 = 0.001314	0.000954
x1 = 0.001445	0.00105
x1 = 0.001577	0.00114
x2 = 0.000794	0.00457
x2 = 0.001594	0.0088
x2 = 0.002391	0.0129
x2 = 0.003191	0.0168
x2 = 0.003992	0.0205
x2 = 0.00479	0.0239
x2 = 0.005589	0.027
x2 = 0.006387	0.0299
x2 = 0.007185	0.0325
x2 = 0.007976	0.0349
x2 = 0.008768	0.0371
x2 = 0.009558	0.0391

CCCCn1cc[n+](C)c1.F[P-](F)(F)(F)(F)F [1-butyl-3-methylimidazolium hexafluorophosphate] + CCCO
Details	excess molar enthalpy [kcal/mol]
288.15 K, x2 = 0.000953	0.00219
288.15 K, x2 = 0.001891	0.00413
288.15 K, x2 = 0.002836	0.00617
288.15 K, x2 = 0.003785	0.00824
288.15 K, x2 = 0.004734	0.0102
288.15 K, x2 = 0.005679	0.0123
288.15 K, x2 = 0.006625	0.0142
288.15 K, x2 = 0.007571	0.0162
298.15 K, x2 = 0.000901	0.0021
298.15 K, x2 = 0.001808	0.00414
298.15 K, x2 = 0.002711	0.00615
298.15 K, x2 = 0.003619	0.00808
298.15 K, x2 = 0.004527	0.00997
298.15 K, x2 = 0.005431	0.0118
298.15 K, x2 = 0.006336	0.0136
298.15 K, x2 = 0.007241	0.0155
308.15 K, x2 = 0.000957	0.00225
308.15 K, x2 = 0.001911	0.00429
308.15 K, x2 = 0.002864	0.00631
308.15 K, x2 = 0.003815	0.00832
308.15 K, x2 = 0.004765	0.0103
308.15 K, x2 = 0.005712	0.0123
308.15 K, x2 = 0.006658	0.0142
308.15 K, x2 = 0.007602	0.0162
318.15 K, x2 = 0.001129	0.00278
318.15 K, x2 = 0.002265	0.00556
318.15 K, x2 = 0.003396	0.00829
318.15 K, x2 = 0.004532	0.0109
318.15 K, x2 = 0.005668	0.0136
318.15 K, x2 = 0.006798	0.0163
318.15 K, x2 = 0.007929	0.019
318.15 K, x2 = 0.009059	0.0215
